Results: patent US4209441A, “Anti-gastric secretion polypeptide” (American Home Products Corporation, priority 1979, dated 1980)
Counter-ions that a name gives are not always drawn. Bridge positions count the residues as written; N and C are the ends. Square brackets hold non-standard residues; d marks the D form. Peptide text beside a SMILES is read from it.

Experiments:
Assay type in all cases: in vivo, rat
insulin = assay: Suppression of insulin in arginine-stimulated rats; conditions: for reduction in insulin in vivo (in words): tested in vivo by standard methods
Experimental: (§1) Albino male rats are administered Nembutol intraperitoneally at a dose of 50 mg/kg. Fifteen minutes later a subcutaneous injection of the test compound or physiological saline is administered. Ten minutes later 0.5 ml. of arginine (300 mg/ml, pH 7.2) is injected into the heart. Five minutes after receipt of the arginine the rats are decapitated and blood is collected into Trasylol-EDTA. An appropriate aliquot is assayed for insulin and glucagon.

glucagon = assay: Suppression of glucagon in arginine-stimulated rats; conditions: for reduction in glucagon in vivo (in words): tested in vivo by standard methods
Experimental: as §1

[1] = tested on: gastric acid secretion (total acid output); assay: Anti-secretory activity in pylorus-ligated rats (total acid output over four hours); conditions: for Percentage Inhibition (of Total Acid Output): i.d. administration, pylorus-ligated rats, 4 hr, versus control group
Experimental: The polypeptide of this invention was tested and found active parenterally (s.c.) in the following scientifically recognized, standard test for anti-secretory activity;
Male Charles River rats of Sprague-Dawley strain and 190 to 240 gm. body weight are food deprived for 24 hr. with water ad libitum until the test. Groups of ten rats each are assigned to either control or drug treatment. Pyloric ligation was performed under ether anesthesia through a midline laparotomy, and either control vehicle (0.25 methylcellulose) or drug in control vehicle was administered intraduodenally. The rats are sacrificed by CO2 asphyxiation four hours after pyloric ligation. The stomachs are removed and the gastric contents emptied into graduated centrifuge tubes. The gastric samples are centrifuged for 20 min. and those obviously contaminated by food, blood or feces are discarded. The volume of gastric fluid is recorded and the acid concentration of 1.0 ml. sample aliquots is measured by electrometric titration to pH 7.0 with 0.1 N NaOH. The calculated product of gastric volume (ml/4 hr.) and acid concentration (mEq/L) estimates the total acid output (TAO, mEq/4 hr.) over the four-hour test period.
An index of drug gastric antisecretory activity is reported at the end of the example illustrating its production. The results, expressed as percentage inhibition, show the reduction of acid secretion in drug-treated compared to control groups, based upon i.d. administration of 2 mg/kg and 0.5 mg/kg of the tested compound. In addition, the effect of the polypeptide in the control of insulin and glucagon secretion is reported at a dose of 750 micrograms per kilogram.

[2] = listed as compound of this invention
[3] = listed as polypeptide of the invention

| SMILES | dose that effectively inhibits secretion of insulin (insulin; same test procedure) | dose that effectively inhibits secretion of glucagon (glucagon; same test procedure) | Percentage Inhibition (of Total Acid Output) ([1]; 0.5 mg/kg) | Percentage Inhibition (of Total Acid Output) ([1]; 2 mg/kg) | anti-secretory activity (in words) ([1]; parenterally (s.c.)) | Insulin (insulin; 750 μg/kg subcutaneous, arginine-stimulated rats, blood 15 min after dosing, control 283 ± 28) | reduction in insulin in vivo (in words) (insulin; [2]) | reduction in insulin in vivo (in words) (insulin; [3]) | Glucagon (glucagon; 750 μg/kg subcutaneous, arginine-stimulated rats, blood 15 min after dosing, control 55 ± 5) | reduction in glucagon in vivo (in words) (glucagon; [2]) | reduction in glucagon in vivo (in words) (glucagon; [3]) |
| --- | --- | --- | --- | --- | --- | --- | --- | --- | --- | --- | --- |
| C[C@H](N)C(=O)NCC(=O)N[C@H]1CSSC[C@@H](C(=O)O)NC(=O)[C@H](CO)NC(=O)[C@H]([C@@H](C)O)NC(=O)[C@H](Cc2ccccc2)NC(=O)[C@H]([C@@H](C)O)NC(=O)[C@H](CCCCN)NC(=O)[C@H](Cc2c[nH]c3ccccc23)NC(=O)[C@H](Cc2ccccc2)NC(=O)[C@H](Cc2ccccc2)NC(=O)[C@H](CC(N)=O)NC(=O)[C@H](CCCCN)NC1=O [Somatostatin, reference compound] | about 10 micrograms per kilogram | about 10 micrograms per kilogram |  |  |  |  |  |  |  |  |  |
| C[C@H](N)C(=O)NCC(=O)N[C@H]1CSSC[C@@H](C(=O)O)NC(=O)[C@H](CO)NC(=O)[C@H]([C@@H](C)O)NC(=O)[C@H](Cc2ccc(O)cc2)NC(=O)[C@H]([C@@H](C)O)NC(=O)[C@H](CCCCN)NC(=O)[C@@H](Cc2c[nH]c3ccccc23)NC(=O)[C@H](Cc2ccccc2)NC(=O)[C@H](Cc2ccccc2)NC(=O)[C@H](CC(N)=O)NC(=O)[C@H](CCCCN)NC1=O [Example 5, L-alanylglycyl-L-cysteinyl-L-lysyl-L-asparaginyl-L-phenylalanyl-L-phenylalanyl-D-tryptophyl-L-lysyl-L-threonyl-L-tyrosyl-L-threonyl-L-seryl-L-cysteine cyclic (3-14)-disulfide, triacetate-salt] (H-AGCKNFF[dW]KTYTSC-OH; disulfide 3-14) |  |  | 38% | 68% | active | 238 ± 42 μU/ml | no meaningful reduction | without materially affecting | 35 ± 9 pg/mL | no meaningful reduction | without materially affecting |
